Data set [1] concerns L. donovani promastigotes (strain 1S/Cl2D). The experiment in a line: Promastigote assay, CellTiter-Glo (Assay Conditions F). The following applies: Leishmania donovani; read-out: Extracellular promastigote EC50. The format is cell-based. The protocol:
(§1) Assay Conditions F: Leishmania promastigotes (L. major: strain LV39; L. donovani, strain 1S/Cl2D) were maintained as previously described in PloS Negl Trop Dis (2015) 9(3):e0003588 and Pathogens (2021) 10(5):593) at 28° C. in M199 media supplemented with glutamine, adenosine, folic acid, hemin, HEPES, 10% Fetal Bovine Serum (Sigma-Aldrich, cat. no. F2442) and 1% Penicillin-Streptomycin (Gibco, cat. no. 15140122). For the promastigote assay, we followed the method previously described in PloS Negl Trop Dis (2011) 5(7):e1253. Briefly, promastigotes were incubated with the compounds for 72 h at 27° C., then lysed by adding 50 μL of CellTiter-Glo (Promega) and placed on an orbital shaker for 5 min at room temperature. After lysis, the resulting ATP-bioluminescence was measured using the Analyst HT plate reader (Molecular Devices).

Data set [2] deals with L. major promastigotes (strain LV39). The data set is described as above. The format is cell-based. The following applies: Leishmania major; read-out: Extracellular promastigote EC50. The protocol:
as §1

A short description of data set [3]: Mouse microsomal stability. The format is in vitro ADME. Particulars: mouse liver microsomes. The protocol:
Mouse microsomal stability assays were performed as described. Test compound (0.5 μM) was incubated with female CD1 mouse (Xenotech) liver microsomes and their action started with addition of excess NADPH (8 mg/mL 50 mM potassium phosphate buffer, pH 7.4). Aliquots (50 μL) of the incubation mixture were removed immediately (at time 0) and at 3, 6, 9, 15, and 30 min and mixed with acetonitrile (100 μL) to stop the reaction. Internal standard was added to all samples, the samples were centrifuged to sediment precipitated protein, and the plates were then sealed prior to UPLC-MS/MS analysis using a Quattro Premier XE (Waters Corporation, USA). XLfit (IDBS, UK) was used to calculate the exponential decay and consequently the rate constant (k) from the ratio of the peak area of test compound to internal standard at each time point. The rate of intrinsic clearance (Cli) of each test compound was then calculated using the equation Cli (mL/min/g liver)=k×V×microsomal protein yield, where V (mL/mg protein) is the incubation volume/mg protein added and microsomal protein yield is taken as 52.5 mg protein/g liver. Verapamil (0.5 μM) was used as a positive control to confirm acceptable assay performance.
(In general: Microsomes from liver hold many membrane-bound enzymes, among them those of drug oxidation.)

Another data set deals with HepG2 cells. The experiment in a line: HepG2 cytotoxicity. The class given is cell-based. Particulars: Homo sapiens; toxicity against HepG2 cells.
Data set [4] is described as follows: Kinetic aqueous solubility by CLND. The class given is physicochemical. The following applies: kinetic from dmso stock, high-throughput CLND. The protocol:
(§2) Solubility of compounds using ChemiLuminescent Nitrogen Detection (CLND) was measured as described. Solubility of compounds using Charged Aerosol Detection (CAD) was measured as described. Solubility of solid compounds in Fasted Simulated Intestinal Fluid (FaSSIF) was measured as described.

The test system of the next data set is host THP-1 macrophages. As to the kind of experiment: GSK inMac assay, host cell toxicity readout (LD MAC). The class given is cell-based, human. The method, boiled down: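 MAC EC50 reflects THP-1 host cell counts, measured within GSK's inMac L. donovani infection assay that also scores intracellular amastigotes and infected-cell percentage.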
The nature of another data set: Whole blood stability. The class given is in vitro ADME. The following applies: criterion: no % reduction over 120 min.
Data set [5] can be described thus: Solubility in Fasted Simulated Intestinal Fluid (FaSSIF). The format is physicochemical. Particulars: thermodynamic from solid. The protocol: as §2
A short description of data set [6]: Plasma protein binding (RED). The format is in vitro ADME. The protocol: The unbound fraction of compound 1 in plasma was measured using a commercial RED (Rapid Equilibrium Dialysis) plate with inserts (Thermo) with a molecular weight membrane cut off of 8K. The relevant volume of spiked sample matrix was added into the corresponding sample chambers of the RED insert. Three volume equivalents of dialysis buffer were added to the buffer chamber. The dialysis plate was sealed and incubated at 37° C. on a plate shaker for approximately 4 h at 100 rpm. An equivalent volume was removed from each of the three buffer sample chambers and placed into its own well in a clean plate. A specific volume of control matrix was added to each buffer sample for matrix matching. Next, >3× volume of precipitation solvent (acetonitrile+internal standard) was added and the plate was centrifuged. A measured volume of the resulting supernatants was transferred into a clean plate and a specific volume of analytical grade water was added to all samples. Samples were analyzed using a compound-specific LC-MS/MS method to generate analyte peak area ratios which are representative of bound and free drug.

Data set [7] deals with L. donovani intracellular amastigotes infecting THP-1 macrophages. As to the kind of experiment: GSK intramacrophage L. donovani assay (LD AMMAC, inMac; Assay Conditions C). The following applies: Leishmania donovani. The format is cell-based. In a few lines: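 EC50 values come from counting amastigotes per infected THP-1 macrophage (AMMAC). Parallel read-outs give percentage of infected cells per well (INFCELL) and a macrophage-number toxicity EC50 (MAC).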

Data set [8] is described as follows: UCSD infection assay, host cell cytotoxicity (CC50). The class given is cell-based. Particulars: host macrophages infected with L. donovani; cytotoxicity against host macrophages.
The mark [9] stands for this setting: Homo sapiens, THP-1, cytotoxicity against host THP-1 macrophages.
Where [10] appears, read: growth inhibition of L. donovani intracellular amastigotes infecting THP-1 macrophages, read-out: LD AMMAC EC50.

Consider 2 compounds from patent US20230381142A1, “ANTILEISHMANIAL COMPOUNDS, COMPOSITIONS AND USE THEREOF” (TRUSTEES OF BOSTON UNIVERSITY, priority 2022, published 2023).

Each structure is given as a SMILES string. pEC50, pIC50: −log10 of the molar value. Values after ≈ are worked out from the molar mass of the structure shown. Like-named read-outs stand apart in the source and are kept apart here. A value given as a limit tells only on which side of the number the result lay.

As to `COc1ccc(N2C(=O)c3[nH]nc(CC(C)C)c3C2c2ccc(F)cc2)cc1` (racemic) [Compound 1, 4-(4-fluorophenyl)-3-isobutyl-5-(4-methoxyphenyl)-4,5-dihydropyrrolo[3,4-c]pyrazol-6(1H)-one], the pEC50 in data set [1] is 5.70; in data set [2], 5.36; in the data set on HepG2 cells it was 4.20; with host THP-1 macrophages (setting [9]), 4.80; in the data set with host THP-1 macrophages (cytotoxicity against host THP-1 macrophages, listed as rac-1), 4.80; in [7] (THP-1, GSK lead selection criteria, read-out: Antiparasitic activity EC50, L. donovani amastigotes), 5.60. For the same compound, in [7] (setting [10]), the pEC50 is 5.60. The half-life at 0.5 μM in data set [3] (female, CD1, pH 7.4, read-out: Microsomal stability (mouse) t1/2) is more than 20 min. Also, the “Microsomal stability (mouse) Clint” value in data set [3] was “Clint < 3.4 mL/min/g”. For the same compound, the solubility in data set [4] (aqueous medium) was 107 µM (≈ 40.6 µg/mL); in [5], 130 µg/mL (≈ 343 µM). Further, the Whole blood stability result in the data set “Whole blood stability” is “Pass”. For the same compound, the fraction unbound at 4 h in data set [6] is 0.025. The same compound gave a pIC50 in data set [7] (THP-1) of 5.60. In data set [8], this compound returned a CC50 at 72 h of more than 20 µM.

For the compound `COc1ccc(N2C(=O)c3[nH]nc(CC(C)C)c3C2c2ccccc2)cc1` (stereo not shown) [Compound 2], the pEC50 in data set [1] was 5.62; in [2] it was 5.38; in the data set on HepG2 cells, 4.10; in the data set with host THP-1 macrophages (setting [9]) it was 4.50; in [7] (setting [10]) it was 5.49. Besides, the solubility in [4] (aqueous medium (not further specified)) is 90 µM (≈ 32.5 µg/mL). For the same compound, the negative logarithm of the IC50 (pIC50) in [7] (THP-1) was 5.49.

As usually defined, the pEC50 is −log10 of the EC50, conventionally taken in molar units. In general, solubility refers to how much of the substance goes into solution per volume. By fraction unbound is commonly meant the share of the substance not bound to proteins or other matrix. Low values mean extensive binding, high ones weak binding. Usually pIC50 stands for −log10 of the IC50, conventionally taken in molar units. High values mean a small IC50, low ones a large IC50. The CC50 is the concentration that lowers cell viability or growth by half. Low readings indicate harm at low concentration, high ones better tolerance by the cells.
